# Test results from article PMC9132415, “Identification of 1H-pyrazolo[3,4-b]pyridine derivatives as novel and potent TBK1 inhibitors: design, synthesis, biological evaluation, and molecular docking study” (Journal of Enzyme Inhibition and Medicinal Chemistry, 2022).
# pIC50: −log10 of the molar value.
# Target: T1, TBK1 (Homo sapiens, UniProt Q9UHD2)
# T1 sequence (Q9UHD2 1-729): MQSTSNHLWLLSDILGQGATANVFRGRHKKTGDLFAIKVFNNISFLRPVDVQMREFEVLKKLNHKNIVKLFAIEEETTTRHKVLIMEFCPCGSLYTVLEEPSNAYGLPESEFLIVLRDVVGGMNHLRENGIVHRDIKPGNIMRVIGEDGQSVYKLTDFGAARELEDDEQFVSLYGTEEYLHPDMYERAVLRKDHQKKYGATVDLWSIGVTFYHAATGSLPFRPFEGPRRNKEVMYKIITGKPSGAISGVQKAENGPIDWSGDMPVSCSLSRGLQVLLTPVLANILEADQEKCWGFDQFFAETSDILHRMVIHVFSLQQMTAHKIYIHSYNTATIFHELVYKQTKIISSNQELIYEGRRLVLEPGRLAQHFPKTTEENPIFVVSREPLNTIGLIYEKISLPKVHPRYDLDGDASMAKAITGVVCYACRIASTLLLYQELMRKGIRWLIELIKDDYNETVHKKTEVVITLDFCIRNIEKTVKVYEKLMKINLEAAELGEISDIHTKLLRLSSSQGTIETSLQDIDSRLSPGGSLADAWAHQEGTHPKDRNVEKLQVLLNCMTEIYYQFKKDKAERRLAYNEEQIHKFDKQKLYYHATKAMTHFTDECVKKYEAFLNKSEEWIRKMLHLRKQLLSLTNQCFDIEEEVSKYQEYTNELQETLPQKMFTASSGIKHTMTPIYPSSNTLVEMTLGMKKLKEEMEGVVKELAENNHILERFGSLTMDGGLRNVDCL
# Assay: FRET-based Z'-LYTE TBK1 enzymatic assay
# Assay type: biochemical
# Parameters: purchased Thermo Scientific A31513
# Details: 100 µM ATP
smiles,measurement,setting,value
Cc1nc2c(F)cc(-c3n[nH]c4ncc(-c5cccc(S(N)(=O)=O)c5)cc34)cc2n1C(C)C [Compound 15y],inhibition at 0.0001 µM,"compound at 0.1 nM, read-out: TBK1 inhibition (%) 0.1 nM",33.6%
same,inhibition at 0.001 µM,"compound at 1 nM, read-out: TBK1 inhibition (%) 1 nM",88.8%
same,inhibition at 0.01 µM,"compound at 10 nM, read-out: TBK1 inhibition (%) 10 nM",93.8%
same,inhibition at 0.1 µM,"compound at 100 nM, read-out: TBK1 inhibition (%) 100 nM",102%
same,inhibition at 1 µM,"compound at 1 μM, read-out: TBK1 inhibition (%) 1 μM",53.9%
same,pIC50,mean of two separate experiments,9.70
